The target in this assay is T1, human mAChR M1 (Homo sapiens, UniProt P11229).
T1 sequence (P11229 1-460): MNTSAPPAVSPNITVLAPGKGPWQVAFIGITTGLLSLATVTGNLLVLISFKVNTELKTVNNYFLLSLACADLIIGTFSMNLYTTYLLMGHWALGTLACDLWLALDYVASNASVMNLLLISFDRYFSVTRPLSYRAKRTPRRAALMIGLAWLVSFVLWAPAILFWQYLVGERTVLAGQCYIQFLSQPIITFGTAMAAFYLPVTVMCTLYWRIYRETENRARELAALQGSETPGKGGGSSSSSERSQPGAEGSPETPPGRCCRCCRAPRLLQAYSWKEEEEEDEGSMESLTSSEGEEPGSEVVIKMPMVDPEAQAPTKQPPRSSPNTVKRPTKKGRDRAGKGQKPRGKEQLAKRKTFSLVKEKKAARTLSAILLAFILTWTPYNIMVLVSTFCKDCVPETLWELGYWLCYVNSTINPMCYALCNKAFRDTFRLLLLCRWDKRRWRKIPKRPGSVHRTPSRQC
As to the kind of experiment: mAChR M1 cell-based functional assay: calcium mobilization, positive allosteric modulator mode (increase in EC20 acetylcholine response). As to conditions: for Emax: read-out: Human M1 Emax (%). The procedure, abridged: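 Calcium-flux assay in CHO-K1 cells stably expressing human M1, loaded with Fluo-4 AM (50 min, 37 °C) and read at 1 Hz. Compound (11-point, 1:3 series) was added at 4 s, EC20 acetylcholine at 144 s and EC80 at 230 s. PAM activity is the concentration-dependent rise in the EC20 response, fitted with a four-parameter logistic.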

Setting [1] is: Table 2, human M1, read-out: Human M1 EC50.
Where [2] appears, read: Table 1, mAChR M1 cell-based functional assay, PAM mode, species not given, read-out: EC50.

The values that follow come from patent publication US11111251B2, “Positive allosteric modulators of the muscarinic acetylcholine receptor M1” (Vanderbilt University, priority 2016, dated 2021).

Read-outs that look alike come from different tables or passages of the source. Bounds are passed on as bounds.

A word on the EC50: it is the midpoint of the concentration-response curve. For orientation: Emax means the maximal effect, on the per cent scale that the assay sets.

In the case of `Cc1ccc(Cc2cc(C(=O)NC34CC5CC(CC(O)(C5)C3)C4)nc3c(C)csc23)cn1` [Compound 108, N-(3-hydroxy-1-adamantyl)-3-methyl-7-[(6-methyl-3-pyridyl)methyl]thieno[3,2-b]pyridine-5-carboxamide], under setting [1], the EC50 was 5270 nM. Moreover, the Emax (Table 2, human M1) was 48.4%.

For `Cc1nc(-c2ccc(Cc3cc(C(=O)N[C@H]4CCOC4)nc4ccsc34)cc2)co1` [Compound 161, 7-[[4-(2-methyloxazol-4-yl)phenyl]methyl]-N-[(3S)-tetrahydrofuran-3-yl]thieno[3,2-b]pyridine-5-carboxamide], under setting [1], the EC50 was 3510 nM. Further, the Emax (Table 2, human M1) is 78.8%.

As to `Cn1cc(-c2ccc(Cc3cc(C(=O)N[C@@H]4CCCOC4)nc4ccsc34)cn2)cn1` [Compound 361, 7-[[6-(1-methylpyrazol-4-yl)-3-pyridyl]methyl]-N-[(3R)-tetrahydropyran-3-yl]thieno[3,2-b]pyridine-5-carboxamide], under setting [1], the EC50 came out at 114 nM. For the same molecule, the Emax (Table 2, human M1) was 86.9%.

Regarding `Cc1nn(C)c(C)c1-c1ccc(Cc2cc(C(=O)NC3CCOCC3)nc3ccsc23)cc1` [Compound 243, N-tetrahydropyran-4-yl-7-[[4-(1,3,5-trimethylpyrazol-4-yl)phenyl]methyl]thieno[3,2-b]pyridine-5-carboxamide], the EC50 under setting [1] is greater than 10000 nM. The Emax (Table 2, human M1) was 17.9%.

Turning to `Cc1ccc(Cc2cc(C(=O)NC3CC4(COC4)C3)nc3ccsc23)cn1` [Compound 261, 7-[(6-methyl-3-pyridyl)methyl]-N-(2-oxaspiro[3.3]heptan-6-yl)thieno[3,2-b]pyridine-5-carboxamide], the EC50 under setting [1] is greater than 10000 nM. For the same molecule, under “Table 2, human M1”, the Emax was 52.8%.

Turning to `Cn1ccc(-c2ccc(Cc3cc(C(=O)NC4CCOCC4(C)C)nc4ccn(C)c34)cc2)n1` (stereo not drawn) [Compound 477, N-(3,3-dimethyltetrahydropyran-4-yl)-1-methyl-7-[[4-(1-methylpyrazol-3-yl)phenyl]methyl]pyrrolo[3,2-b]pyridine-5-carboxamide], under setting [1], the EC50 was 200 nM. Besides, the Emax (Table 2, human M1) stood at 86.4%.

As for `Cc1ccc(Oc2cc(C(=O)NC3CCCCC3)nc3ccsc23)cn1` [Compound 19, N-cyclohexyl-7-[(6-methyl-3-pyridyl)oxy]thieno[3,2-b]pyridine-5-carboxamide], under setting [2], the EC50 is greater than 10000 nM.

For `Cn1cc(-c2ccc(Oc3cc(C(=O)N[C@H]4CCCC[C@@H]4O)nc4ccsc34)c(F)c2)cn1` [Compound 2, 7-[2-fluoro-4-(1-methylpyrazol-4-yl)phenoxy]-N-[(1S,2S)-2-hydroxycyclohexyl]thieno[3,2-b]pyridine-5-carboxamide], the 50% effective concentration (EC50) under setting [2] turned out to be 2150 nM.

For the molecule `Cc1ccc(Cc2cc(C(=O)NC3CCCCNC3=O)nc3ccsc23)cn1` (stereo not drawn) [Compound 67, 7-[(6-methyl-3-pyridyl)methyl]-N-(2-oxoazepan-3-yl)thieno[3,2-b]pyridine-5-carboxamide], the EC50 under setting [1] was 2780 nM. Also, the Emax (Table 2, human M1) came out at 92.7%.

With `Cc1nc(-c2ccc(Cc3cc(C(=O)N[C@@H]4CCCOC4)nc4ccsc34)cc2)cs1` [Compound 188, 7-[[4-(2-methylthiazol-4-yl)phenyl]methyl]-N-[(3R)-tetrahydropyran-3-yl]thieno[3,2-b]pyridine-5-carboxamide], under setting [1], the EC50 turned out to be 1790 nM. The Emax (Table 2, human M1) was 83.2%.

In the case of `Cn1ccc(-c2ccc(Cc3cc(C(=O)NC4CC(F)(F)C4)nc4ccn(C)c34)cn2)n1` [Compound 511, N-(3,3-difluorocyclobutyl)-1-methyl-7-[[6-(1-methylpyrazol-3-yl)-3-pyridyl]methyl]pyrrolo[3,2-b]pyridine-5-carboxamide;], under setting [1], the EC50 came to 1770 nM. For the same molecule, the Emax (Table 2, human M1) is 66.1%.

As to `Cn1ccc(-c2ccc(Cc3cc(C(=O)N[C@H]4CCOC[C@@H]4O)nc4ccsc34)cn2)n1` [Compound 353, N-[(3R,4S)-3-hydroxytetrahydropyran-4-yl]-7-[[6-(1-methylpyrazol-3-yl)-3-pyridyl]methyl]thieno[3,2-b]pyridine-5-carboxamide], the EC50 under setting [1] stood at 5.05 nM. Moreover, the Emax (Table 2, human M1) amounted to 62.1%.

With `Cc1ccc(Cc2cc(C(=O)NC3C4CC5C[C@H]3CC(O)(C5)C4)nc3c(C)csc23)cn1` (stereo partly drawn) [Compound 109, N-[(1S)-5-hydroxy-2-adamantyl]-3-methyl-7-[(6-methyl-3-pyridyl)methyl]thieno[3,2-b]pyridine-5-carboxamide], the EC50 under setting [1] came to 3250 nM. For the same molecule, for the setting “Table 2, human M1”, the Emax is 54.6%.

In the case of `O=C(NC[C@H]1CCCO1)c1cc(Cc2ccc(-n3cccn3)cc2)c2sccc2n1` [Compound 287, 7-[(4-pyrazol-1-ylphenyl)methyl]-N-[[(2R)-tetrahydrofuran-2-yl]methyl]thieno[3,2-b]pyridine-5-carboxamide], the EC50 under setting [1] is 49.4 nM. Further, for the setting “Table 2, human M1”, the Emax stood at 64.9%.

For the molecule `Cn1ncc2nc(C(=O)NCC3CCO3)cc(Cc3ccc(-c4cscn4)cc3)c21` (stereo not drawn) [Compound 494, 1-methyl-N-(oxetan-2-ylmethyl)-7-[(4-thiazol-4-ylphenyl)methyl]pyrazolo-[4,3-b]pyridine-5-carboxamide], under setting [1], the EC50 is 5020 nM. Moreover, the Emax (Table 2, human M1) was 52.2%.

`CC1CC(NC(=O)c2cc(Cc3ccc(-c4ccn(C)n4)nc3)c3sccc3n2)CC(C)O1` (stereo not drawn) [Compound 377, N-(2,6-dimethyltetrahydropyran-4-yl)-7-[[6-(1-methylpyrazol-3-yl)-3-pyridyl]methyl]thieno[3,2-b]pyridine-5-carboxamide]: the EC50 under setting [1] was 412 nM. The Emax (Table 2, human M1) amounted to 58.7%.

As for `Cn1cc(-c2ccc(Oc3cc(C(=O)N[C@H]4CCC[C@@H]4O)nc4ccsc34)c(F)c2)cn1` [Compound 6], the EC50 under setting [2] is greater than 10000 nM.

With `Cn1cc(-c2ccc(Cc3cc(C(=O)N[C@@H]4CCCCC[C@H]4O)nc4ccsc34)cc2)nn1` [Compound 157, N-[(1R,2R)-2-hydroxycycloheptyl]-7-[[4-(1-methyltriazol-4-yl)phenyl]methyl]thieno[3,2-b]pyridine-5-carboxamide], under setting [1], the EC50 came to 24.2 nM. Also, under “Table 2, human M1”, the Emax was found to be 70%.

Regarding `Cc1csc2c(Cc3ccc(-c4ccn(C)n4)cc3)cc(C(=O)N[C@H]3CCCC[C@@H]3O)nc12` [Compound 312, N-[(1S,2S)-2-hydroxycyclohexyl]-3-methyl-7-[[4-(1-methylpyrazol-3-yl)phenyl]methyl]thieno[3,2-b]pyridine-5-carboxamide], the EC50 under setting [1] turned out to be 109 nM. Also, the Emax (Table 2, human M1) came to 65.5%.

Regarding `Cc1ccc(Oc2cc(C(=O)NCC(C)(C)O)nc3ccsc23)cn1` [Compound 32, N-(2-hydroxy-2-methyl-propyl)-7-[(6-methyl-3-pyridyl)oxy]thieno[3,2-b]pyridine-5-carboxamide], under setting [2], the EC50 is greater than 10000 nM.

Turning to `CC(C)(C)N1CC(NC(=O)c2cc(Cc3ccc(-n4cccn4)cc3)c3sccc3n2)C1` [Compound 434, N-(1-tert-butylazetidin-3-yl)-7-[(4-pyrazol-1-ylphenyl)methyl]thieno[3,2-b]pyridine-5-carboxamide], the EC50 under setting [1] worked out at 1460 nM. Further, the Emax (Table 2, human M1) came to 66.2%.

With `CC1(C)COCCC1NC(=O)c1cc(Cc2ccc(-c3cncs3)cc2)c2sccc2n1` (stereo not drawn) [Compound 390, N-(3,3-dimethyltetrahydropyran-4-yl)-7-[(4-thiazol-5-ylphenyl)methyl]thieno[3,2-b]pyridine-5-carboxamide], the EC50 under setting [1] is 926 nM. Also, for the setting “Table 2, human M1”, the Emax amounted to 66.3%.

Consider `Cn1ncc2nc(C(=O)NCC3CCO3)cc(Cc3ccc(-n4cccn4)cc3)c21` (stereo not drawn) [Compound 501, 1-methyl-N-(oxetan-2-ylmethyl)-7-[(4-pyrazol-1-ylphenyl)methyl]pyrazolo[4,3-b]-pyridine-5-carboxamide], for which the EC50 under setting [1] was greater than 10000 nM. The Emax (Table 2, human M1) is 57.4%.

Take `O=C(N[C@H]1COCC[C@@H]1O)c1cc(Cc2ccc(-c3nccs3)cc2)c2sccc2n1` [Compound 371]: the EC50 under setting [1] was 22.1 nM. For the same molecule, the Emax (Table 2, human M1) came to 81.5%.

Turning to `Cn1ccc2nc(C(=O)N[C@H]3CCCC[C@@H]3O)cc(Cc3ccc(-n4cccn4)cc3)c21` [Compound 454, N-[(1S,2S)-2-hydroxycyclohexyl]-1-methyl-7-[(4-pyrazol-1-ylphenyl)methyl]pyrrolo[3,2-b]pyridine-5-carboxamide], the EC50 under setting [1] was determined as 13.9 nM. Further, the Emax (Table 2, human M1) stood at 69.3%.

With `O=C(NC1CC2(COC2)C1)c1cc(Cc2ccc(-c3cncs3)cc2)c2sccc2n1` [Compound 398, N-(2-oxaspiro[3.3]heptan-6-yl)-7-[(4-thiazol-5-ylphenyl)methyl]thieno[3,2-b]pyridine-5-carboxamide], under setting [1], the EC50 came out at 438 nM. Moreover, the Emax (Table 2, human M1) amounted to 60.9%.

Take `Cc1ccc(Cc2cc(C(=O)N[C@H]3CCOC[C@@H]3O)nc3ccsc23)cn1` [Compound 45, N-[(3R,4S)-3-hydroxytetrahydropyran-4-yl]-7-[(6-methyl-3-pyridyl)methyl]thieno[3,2-b]pyridine-5-carboxamide]: under setting [2], the EC50 was determined as 80 nM.

For `Cn1ccc(-c2ccc(Cc3cc(C(=O)NC4CCOCC4(C)C)nc4ccsc34)cn2)n1` (stereo not drawn) [Compound 376, N-(3,3-dimethyltetrahydropyran-4-yl)-7-[[6-(1-methylpyrazol-3-yl)-3-pyridyl]methyl]thieno[3,2-b]pyridine-5-carboxamide], under setting [1], the EC50 came to 170 nM. In addition, where the note is “Table 2, human M1”, the Emax turned out to be 60.7%.
